Assay results taken from patent US20090060997A1, “PROCESS FOR PRODUCING A PHARMACEUTICAL PREPARATION FOR THERAPEUTIC TREATMENT OF ENDOMETRIOSIS CONTAINING A COMBINATION OF A GESTAGEN AND (6S)-5-METHYLTETRAHYDROFOLATE” (priority 2007, published 2009).

Experiments:
[1] = system: ovulation; conditions: daily dose; cited from earlier work
[2] = set-up: species or system women; conditions: in vivo
Source text: (§1) 128 patients were randomly assigned to the LA group and 124 patients to the DNG group. The efficacy of the therapy was examined, among other ways, with the aid of a pain scale (Visual Analog Scale, VAS) questionnaire that was filled out by the patient.

[3] = system: women with laparoscopically diagnosed endometriosis; test: Clinical study in endometriosis: pain scale (Visual Analog Scale, VAS) questionnaire; type: in vivo; conditions: 6 months; for reduction in pain (VAS) at the end of the treatment compared to the beginning of the study: DNG 2 mg/day orally, LA 3.75 mg s.c. every 4 weeks
Source text: as §1

[4] = system: persons affected with endometriosis; conditions: 2 mg of dienogest daily for 24 weeks; cited from earlier work

Row | drop in bone density [2] | SMILES | ovulation-inhibiting dose [1] [mg] | reduction in pain (VAS) at the end of the treatment compared to the beginning of the study [3] [mm] | statistical analysis of pain reduction versus LA ([3]; DNG 2 mg/day orally vs LA 3.75 mg s.c. every 4 weeks) | result of the treatment of endometriosis [4]
1 | – | CC(=O)O[C@]1(C(C)=O)CC[C@H]2[C@@H]3C=C(Cl)C4=CC(=O)CC[C@]4(C)[C@H]3CC[C@@]21C [chlormadinone acetate] | 1.7 | – | – | –
2 | – | CC(=O)O[C@]1(C(C)=O)CC[C@H]2[C@@H]3C=C(Cl)C4=CC(=O)[C@@H]5C[C@@H]5[C@]4(C)[C@H]3CC[C@@]21C [cyproterone acetate] | 1 | – | – | –
3 | 4% | CCNC(=O)[C@@H]1CCCN1C(=O)[C@H](CCCNC(=N)N)NC(=O)[C@H](CC(C)C)NC(=O)[C@@H](CC(C)C)NC(=O)[C@H](Cc1ccc(O)cc1)NC(=O)[C@H](CO)NC(=O)[C@H](Cc1c[nH]c2ccccc12)NC(=O)[C@H](Cc1c[nH]cn1)NC(=O)[C@@H]1CCC(=O)N1 [LA, leuprorelin acetate] | – | −46.0 | – | –
4 | no reduction in bone density | C[C@]12CCC3=C4CCC(=O)C=C4CC[C@H]3[C@@H]1CC[C@@]2(O)CC#N [dienogest, 17α-cyano-methyl-17-β-hydroxy-estra-4,9-dien-3-one] | – | −47.5 | not inferior to LA | comparable to that with Danazol or with a GnRH agonist
